In publication PMC12655819 (Pharmaceuticals, 2025):
Marks after values point to notes of the source that are not given here.

How the values were obtained:
[1] = Pharmacokinetics from dried saliva collected with Mitra VAMS (vsMPA, vsMPAG); assay type: in vivo, human
Description: (§1) The AUC0–4, Tmax, and Cmax parameters were calculated using the R (version 4.5.1) package software (R Core Team, 2025), supported by RStudio (version 2025.05.1+513) from Posit PBC software (Boston, MA, USA). […] The vMPA and vMPAG capillary blood levels were corrected using formulas validated in our department (partially published by Kocur et al.) and expressed as estimated capillary plasma concentrations. […] Individual PK profiles for each patient included in the study are provided in the Supplementary File (Figures S4 and S5).
Samples were sonicated (36 °C, 30 min), vortexed (15 min), and frozen (−20 °C, 15 min). After centrifugation (10 min, 25,155× g), 350 µL of supernatant was transferred to a total recovery borosilicate vial (Finneran, Vineland, NJ, USA) and evaporated to dryness under a stream of nitrogen (40 °C) using Ultravap® Levante (Porvair, Hampshire, Great Britain). The residue was reconstituted in 150 µL of mobile phase A, filtered in a Verex™ vial, and 5 µL was injected into the LC–MS/MS system. Analyses were performed at the Department of Drug Chemistry, Pharmaceutical and Biomedical Analysis, Medical University of Warsaw, Poland.
(§2) Additionally, the unstimulated saliva samples were simultaneously collected using the Salivette® device (Sarstedt, Nümbrecht, Germany) and Mitra™ 20 µL microsampling tips (Neoteryx/Trajan, Torrance, CA, USA (all saliva samples simultaneously to plasma and capillary blood sampling: 0, 0.5, 1, 2, and 4 h after drug administration). Patients had not eaten for at least 30 min before saliva collection, and their mouths were rinsed with water. The study was conducted in accordance with the Declaration of Helsinki and the International Council for Harmonization Guideline for Good Clinical Practice. The protocol was approved by the Bioethics Committee of the Children’s Memorial Health Institute, Warsaw, Poland (approval No. 15/KBE/2023, with subsequent amendments). Written informed consent was obtained from all participants and their legal guardians.

[2] = Pharmacokinetics from total plasma levels (tMPA, tMPAG), LC-MS/MS; assay type: in vivo, human; settings: total plasma level
Description: as §1
Briefly, 50 μL of plasma was diluted with 90 μL of deionized water, and 10 μL of IS (d3-MPA) was added. Next, 400 μL of the precipitation mixture (a 0.1 M aqueous zinc sulfate solution and acetonitrile, 50:50 (v/v)) was added. The sample was then shaken for 10 min at room temperature using an automatic rotary vortex (Ohaus, Parsippany, NJ, USA) and centrifuged for 10 min at 13,500× g at 4 °C thereafter. The supernatant was transferred into chromatographic vials and analyzed using LC-MS/MS. Sample processing was performed at the Department of Drug Chemistry, Pharmaceutical and Biomedical Analysis, Medical University of Warsaw, Poland.
(§3) From each patient (if they consented to all sampling types), four samples were collected simultaneously at all defined time points of the dynamic PK profile (0, 0.5, 1, 2, and 4 h after drug administration). Whole blood was collected using standard venipuncture by a phlebotomist into a K3-EDTA test tube (Sarstedt, Nümbrecht, Germany). Plasma for analytical determination was obtained by centrifuging a portion of the whole blood and stored at −40 °C until assay. At the same time, 10 µL capillary blood samples were collected from a finger prick using the Mitra™ device (VAMS samples were stored in light-protected aluminum zip bags with desiccant at room temperature).

[3] = Pharmacokinetics from capillary blood collected with Mitra VAMS (vMPA, vMPAG); assay type: in vivo, human
Description: as §1
Subsequently, the tip (after at least 1 h of drying) was placed in an 1.5 mL Eppendorf-type test tube (Eppendorf AG, Hamburg, Germany) containing 150 μL of pure deionized water. Next, the test tube was shaken at room temperature for 1 h using the automatic rotary vortex. Subsequently, 10 μL of IS solution and 150 μL of the precipitation mixture were added. The sample was then processed as described in Section 4.3.4. Sample processing was carried out at the Department of Drug Chemistry, Pharmaceutical and Biomedical Analysis, Medical University of Warsaw, Poland [21].
as §3

[4] = Pharmacokinetics from liquid (wet) saliva collected with Salivette (sMPA, sMPAG); assay type: in vivo, human
Description: as §1
The concentrations of sMPA and sMPAG in saliva were determined using a previously described LC-MS/MS method. Briefly, 100 µL of saliva was used for analysis. […] Samples were vortexed and evaporated to dryness. The dry residues were reconstituted in 100 μL of a mobile phase consisting of a 1:4 (v/v) mixture of methanol and water, both of which contained 0.1% formic acid. After double centrifugation, the samples were analyzed using a Shimadzu Ultra-Performance Liquid Chromatography (UPLC) system (Shimadzu Co., Kyoto, Japan) coupled with a triple quadrupole mass spectrometer (LCMS-8030; Simadzu Co., Kyoto, Japan). The method was linear over the concentration range of 2–500 μg/L for both sMPA and sMPAG. This part of the work was carried out with the support of the Centre of Innovative Pharmaceutical Technology, Poznan University of Medical Sciences (Poznan, Poland).
as §2

[5] = cited from earlier work
[6] = human, 0 h (pre-dose), n = 20, mean ± SD, read-out: C0 concentration
[7] = human, 0.5 h post-dose, n = 20, mean ± SD, read-out: C0.5 concentration
[8] = human, 1 h post-dose, n = 20, mean ± SD, read-out: C1 concentration
[9] = human, 2 h post-dose, n = 20, mean ± SD, read-out: C2 concentration
[10] = human, 4 h post-dose, n = 20, mean ± SD, read-out: C4 concentration
[11] = normalized to MMF dose, n = 20, mean (range)

- AUC(0–4) Normalized to Drug Dose ([1]; dried saliva (Mitra VAMS), normalized to MMF dose, n = 20, mean (range)): 305.78 (33.88–2937.03) ^c µg × h/mL × g
- Cmax ([1]; human, dried saliva (Mitra VAMS 20 µL), pediatric renal transplant recipients (n = 20) on MMF, 0–4 h post-dose, mean (range), read-out: Cmax): 84.1 ng/mL
- concentration at 0 h ([1]; human, dried saliva (Mitra VAMS), 0 h (pre-dose), n = 20, mean ± SD, read-out: C0 concentration): 7.54 ± 4.89 ng/mL
- concentration at 0.5 h ([1]; human, dried saliva (Mitra VAMS), 0.5 h post-dose, n = 20, mean ± SD, read-out: C0.5 concentration): 27.7 ± 9.14 ng/mL
- concentration at 1 h ([1]; human, dried saliva (Mitra VAMS), 1 h post-dose, n = 20, mean ± SD, read-out: C1 concentration): 52.2 ± 40.9 ng/mL
- concentration at 2 h ([1]; human, dried saliva (Mitra VAMS), 2 h post-dose, n = 20, mean ± SD, read-out: C2 concentration): 17.1 ± 16.7 ng/mL
- concentration at 4 h ([1]; human, dried saliva (Mitra VAMS), 4 h post-dose, n = 20, mean ± SD, read-out: C4 concentration): 7.25 ± 8.03 ng/mL
- Tmax ([1]; human, dried saliva (Mitra VAMS), pediatric renal transplant recipients (n = 20) on MMF, mean (range), read-out: Tmax): 51 min
- Tmax ([2]; human, plasma, pediatric renal transplant recipients (n = 20) on MMF, mean (range), read-out: Tmax): 30 to 60 min
- concentration at 0 h [2, 6]: 2150 ± 1620 ng/mL
- concentration at 0.5 h [2, 7]: 10700 ± 9560 ng/mL
- concentration at 1 h [2, 8]: 11400 ± 6810 ng/mL
- concentration at 2 h [2, 9]: 4680 ± 3410 ng/mL
- concentration at 4 h [2, 10]: 2230 ± 2390 ng/mL
- Cmax ([2]; human, pediatric renal transplant recipients (n = 20) on MMF (CellCept), steady state, 0–4 h post-dose, mean (range), read-out: Cmax): 14400 ng/mL
- AUC(0-t) ([2]; human, pediatric renal transplant recipients (n = 20) on MMF, mean (range)): 23800 ng·h/mL
- AUC(0–4) Normalized to Drug Dose [2, 11]: 83.67 (22.44–447.22) ^d mg × h/mL × g
- Tmax ([2]; pediatric renal transplant recipients (n = 20) on MMF, mean (range), listed as tMPA): 0.78 (0.50–1.00) h
- concentration at 0 h [3, 6]: 1800 ± 1300 ng/mL
- concentration at 0.5 h [3, 7]: 9660 ± 8960 ng/mL
- concentration at 1 h [3, 8]: 10100 ± 5970 ng/mL
- concentration at 2 h [3, 9]: 4430 ± 3000 ng/mL
- concentration at 4 h [3, 10]: 1770 ± 2010 ng/mL
- AUC(0-t) ([3]; human, corrected to estimated capillary plasma concentration, n = 20, mean (range)): 21400 ng·h/mL
- Cmax ([3]; human, corrected to estimated capillary plasma concentration, pediatric renal transplant recipients (n = 20) on MMF, mean (range), read-out: Cmax): 12900 ng/mL
- Tmax ([3]; human, pediatric renal transplant recipients (n = 20) on MMF, mean (range), read-out: Tmax): 46.8 min
- AUC(0–4) Normalized to Drug Dose [3, 11]: 68.95 (20.71–444.79) ^d mg × h/mL × g
- concentration at 0 h ([4]; human, unstimulated, Salivette, wet saliva, 0 h (pre-dose), n = 20, mean ± SD, read-out: C0 concentration): 8.24 ± 5.66 ng/mL
- concentration at 0.5 h ([4]; human, unstimulated, Salivette, wet saliva, 0.5 h post-dose, n = 20, mean ± SD, read-out: C0.5 concentration): 27.2 ± 7.86 ng/mL
- concentration at 1 h ([4]; human, unstimulated, Salivette, wet saliva, 1 h post-dose, n = 20, mean ± SD, read-out: C1 concentration): 51.6 ± 45.8 ng/mL
- concentration at 2 h ([4]; human, unstimulated, Salivette, wet saliva, 2 h post-dose, n = 20, mean ± SD, read-out: C2 concentration): 17.7 ± 16.1 ng/mL
- concentration at 4 h ([4]; human, unstimulated, Salivette, wet saliva, 4 h post-dose, n = 20, mean ± SD, read-out: C4 concentration): 8 ± 9.49 ng/mL
- AUC(0-t) ([4]; human, unstimulated, Salivette, wet saliva, pediatric renal transplant recipients (n = 20) on MMF, mean (range)): 107 ng·h/mL
- Tmax ([4]; human, unstimulated, Salivette, wet saliva, pediatric renal transplant recipients (n = 20) on MMF, mean (range), read-out: Tmax): 51 min
- Cmax ([4]; human, wet saliva (unstimulated, Salivette), pediatric renal transplant recipients (n = 20) on MMF, 0–4 h post-dose, mean (range), read-out: Cmax): 83.5 ng/mL
- AUC(0–4) Normalized to Drug Dose ([4]; wet saliva, normalized to MMF dose, n = 20, mean (range)): 300.18 (32.29–2716.80) ^c µg × h/mL × g
SMILES: COc1c(C)c2c(c(O)c1C/C=C(\C)CCC(=O)O)C(=O)OC2 [MPA, Mycophenolic acid]
- increase in free fraction ([5]; displacement by MPAG in severe renal impairment): 7%
- affinity for plasma proteins (binding) ([5]; general statement of the introduction): 97–99%
- time of peak plasma concentration after administration ([5]; plasma): 1 to 2 h
- unbound fraction ([5]; typical range): 1 to 2.5%
